Key:
[1] = biological target: T1, CCKB receptor (Mus musculus, UniProt P56481); assay: radioligand binding assay at the CCKB receptor in mouse cortical membranes ([125I]-CCK8S); settings: [125I]-CCK8S 200 pM, 150 min at 21±3° C.; for pKi (Mouse cortex): pH 7.2; for Ki: pH 7.2, read-out: pKi (Mouse cortex) (converted)
T1 construct: The cortex was dissected, weighed and homogenised in 40 ml ice-cold buffer; tissue Charles River (animals); host or cells: cerebral cortex of male CD1 mice, membranes
T1 sequence (P56481 1-453): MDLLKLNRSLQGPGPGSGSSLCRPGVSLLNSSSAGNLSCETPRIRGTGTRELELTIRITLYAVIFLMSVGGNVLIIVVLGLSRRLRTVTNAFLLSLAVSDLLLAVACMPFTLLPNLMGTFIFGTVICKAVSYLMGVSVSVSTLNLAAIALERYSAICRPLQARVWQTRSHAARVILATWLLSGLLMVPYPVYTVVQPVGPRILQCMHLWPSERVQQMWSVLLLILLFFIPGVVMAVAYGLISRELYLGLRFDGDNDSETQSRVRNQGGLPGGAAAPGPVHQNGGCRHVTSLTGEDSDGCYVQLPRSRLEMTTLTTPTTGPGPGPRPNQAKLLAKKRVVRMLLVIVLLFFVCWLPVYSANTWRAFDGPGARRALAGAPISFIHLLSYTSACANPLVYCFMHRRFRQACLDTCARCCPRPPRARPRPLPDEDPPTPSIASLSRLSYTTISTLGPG
Method: The compounds of the examples were tested for binding at the CCKB receptor in mouse cortical membranes by means of a radioligand binding assay. The procedure was as follows:
The whole brains from male mice (CD1 22-25 g; Charles River) were removed and placed in ice-cold buffer (pH7.2@21±3° C.) of the following composition (mM); 10 HEPES, 130 NaCl, 4.7 KCl, 5 MgCl2, 1 EDTA and containing 0.25 g.1^-1 bacitracin. The cortex was dissected, weighed and homogenised in 40 ml ice-cold buffer using a Teflon-in-glass homogeniser. The homogenate was centrifuged at 39,800 g for 20 min at 4° C., the supernatant discarded and the pellet resuspended by homogenisation in fresh buffer. The homogenate was recentrifuged (39,800 g; 20 min @4° C.) and the final pellet was resuspended in HEPES buffer to give a tissue concentration of 2 mg.ml^-1 (original wet weight).
The membranes (400 μl) were incubated for 150 min at 21±3° C. in a final volume of 0.5 ml with HEPES buffer containing [^125 I]-CCK8S (0.05 ml; 200 pM NEN 2200 Ci.mmol^-1) and competing compound. Total and non-specific binding of [^125 I]-CCK8S were defined using 0.05 ml of buffer and 0.05 ml of […] L-365,260, respectively. The assay was terminated by rapid filtration through pre-soaked Whatman GF/B filters using a Brandell Cell harvester. The filters were washed (3×3 ml) with ice-cold 50 mM Tris-HCl (pH7.4@4° C.) and bound radioactivity determined by counting (1 min.) in a gamma-counter.

[2] = biological target: T2, CCKA (Cavia porcellus, UniProt Q63931); assay: CCKA binding assay, guinea pig pancreas membranes ([125I]-CCK8(S)); settings: [125I]-CCK8(S) 200 pM, 0.375 μM PD134,308, 150 min at 21±3° C., pH 7.2, read-out: pKi (Guinea pig pancreas) (converted)
T2 construct: The pancreatata were removed from male guinea-pigs; from tissue; host or cells: pancreas of male Dunkin Hartley guinea pigs, membranes
T2 sequence (Q63931 1-430): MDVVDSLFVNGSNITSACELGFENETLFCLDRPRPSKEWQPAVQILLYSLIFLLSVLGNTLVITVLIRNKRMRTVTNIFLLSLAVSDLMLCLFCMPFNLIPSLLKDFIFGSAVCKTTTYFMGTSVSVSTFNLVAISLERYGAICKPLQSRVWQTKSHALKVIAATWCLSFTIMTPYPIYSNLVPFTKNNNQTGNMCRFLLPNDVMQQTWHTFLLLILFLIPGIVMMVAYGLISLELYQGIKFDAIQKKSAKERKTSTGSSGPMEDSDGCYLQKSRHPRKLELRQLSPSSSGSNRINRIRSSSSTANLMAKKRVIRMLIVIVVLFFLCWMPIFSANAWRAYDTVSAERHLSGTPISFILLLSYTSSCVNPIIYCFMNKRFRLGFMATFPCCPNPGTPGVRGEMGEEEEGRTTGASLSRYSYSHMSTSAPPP
Method: The compounds of the examples were also tested in a CCKA binding assay as follows:
The pancreatata were removed from male guinea-pigs (200-300 g; Dunkin Hartley) and placed in ice-cold HEPES buffer (pH 7.2@21±3° C.). The pancreatata were homogenised in 40 ml ice-cold HEPES buffer using a polytron (Brinkmann, PT10, setting 10) 4×1 second. The homogenate was centrifuged at 39,800 g for 15 min at 4° C. The supernatant was discarded and the pellet re-suspended using a Teflon-in-glass homogeniser in 20 volumes of fresh buffer and re-centrifuged as above. The final pellet was re-suspended using a Teflon-in-glass homogeniser to a tissue concentration of 1 mg.ml^-1 (original wet weight), and filtered through 500 μm pore-size Nytex mesh.
The membranes (400 μl; containing 0.375 μM PD134,308) were incubated for 150 minutes at 21±3° C. in a final volume of 0.5 ml with HEPES buffer containing [^125 I]-CCK8 (S) (50 μl; 200 pM) and competing compound. Total and non-specific binding of [^125 I]-CCK8 (S) were defined using 50 μl of buffer and 50 μl of 100 nM L-364,718 respectively. The assay was terminated by rapid filtration through pre-soaked Whatman GF/B filters using a Brandell Cell Harvester. The filters were washed (3×3 ml) with ice-cold 50 mM Tris HCl (pH 7.4 at 4° C.) and bound radioactivity was determined by counting (1 min) in a gamma counter.

Compound | Ki [1] | other results
(+/-)-trans-4-acetyl-3-(1-adamantyl)methyl-1-benzyl-5-carboxymethylaminocarbonyl-2,7-dioxo-9-methyl-2,3,4,5,6,7-hexahydro-1H-1,4-benzodiazonine [Example 70] | – | pKi (Mouse cortex) [1]: 6.9
CC(=O)N1[C@H](CC23CC4CC(CC(C4)C2)C3)C(=O)N(Cc2ccccc2F)c2ccccc2C(=O)C[C@H]1C(=O)NCc1nn[nH]n1 [Example 68, (3R,5S)-4-acetyl-3-(1-adamantyl)methyl-1-(2-fluorobenzyl)-5-(5-tetrazolo)methylaminocarbonyl-2,7-dioxo-2,3,4,5,6,7-hexahydro-1H-1,4-benzodiazonine] | – | pKi (Mouse cortex) [1]: 6.8
CC(=O)N1[C@H](CC23CC4CC(CC(C4)C2)C3)C(=O)N(Cc2ccc(C)cc2)c2ccccc2C(=O)C[C@H]1C(=O)NCC(=O)O [Example 72, (3R,5S)-4-acetyl-3-(1-adamantyl)methyl-1-(4-methylbenzyl)-5-carboxymethylaminocarbonyl-2,7-dioxo-2,3,4,5,6,7-hexahydro-1H-1,4-benzodiazonine] | 631 nM | –
CC(=O)N1[C@H](CC23CC4CC(CC(C4)C2)C3)C(=O)N(Cc2ccccc2F)c2ccccc2C(=O)C[C@H]1C(=O)N[C@@H](C)C(=O)NS(C)(=O)=O [Example 66, (3R,5S)-4-acetyl-3-(1-adamantyl)methyl-1-(2-fluorobenzyl)-5-[(1S)-methanesulphonamidocarboxy]ethylaminocarbonyl-2,7-dioxo-2,3,4,5,6,7-hexahydro-1H-1,4-benzodiazonine] | 501 nM | –
CCC1CCN(C(=O)c2cc3ccccc3[nH]2)CC(=O)N(Cc2ccccc2)c2ccccc21 (centres unmarked) [Example 53, 1-benzyl-7-ethyl-4-(2-indolecarbonyl)-2-oxo-2,3,4,5,6,7-hexahydro-1H-1,4-benzodiazonine] | – | Ki [2]: 631 nM
Cc1cccc(NC(=O)N2CCCc3ccccc3N(Cc3ccccc3)C(=O)C2)c1 [Example 54, 1-benzyl-4-(3-methylphenyl)carbamyl-2-oxo-2,3,4,5,6,7-hexahydro-1H-1,4-benzodiazonine] | 3980 nM | –
CC1CCN(C(=O)Nc2cccc(C(=O)O)c2)CC(=O)N(Cc2ccccc2)c2ccccc21 (centres unmarked) [Example 48, 1-benzyl-7-methyl-4-(3-carboxyphenyl)carbamyl-2-oxo-2,3,4,5,6,7-hexahydro-1H-1,4-benzodiazonine] | – | pKi (Mouse cortex) [1]: 4.8
COc1ccc(CN2C(=O)[C@@H](CC34CC5CC(CC(C5)C3)C4)N(C(C)=O)[C@H](C(=O)NCC(=O)O)CC(=O)c3ccccc32)cc1 [Example 75, (3R,5S)-4-acetyl-3-(1-adamantyl)methyl-1-(4-methoxybenzyl)-5-carboxymethylaminocarbonyl-2,7-dioxo-2,3,4,5,6,7-hexahydro-1H-1,4-benzodiazonine] | – | pKi (Mouse cortex) [1]: 5.9
CC(=O)N1[C@H](CC23CC4CC(CC(C4)C2)C3)C(=O)N(Cc2ccccc2C)c2ccccc2C(=O)C[C@H]1C(=O)NCC(=O)O [Example 74, (3R,5S)-4-acetyl-3-(1-adamantyl)methyl-1-(2-methylbenzyl)-5-carboxymethylaminocarbonyl-2,7-dioxo-2,3,4,5,6,7-hexahydro-1H-1,4-benzodiazonine] | 158 nM | –

More lines, main results first:

Ki [1] | Compound | other results
126 nM | COc1ccc2c(c1)C(=O)C[C@@H](C(=O)NCC(=O)O)N(C(C)=O)[C@H](CC13CC4CC(CC(C4)C1)C3)C(=O)N2Cc1ccccc1 (relative stereo) [Example 69, (+/-)-trans-4-acetyl-3-(1-adamantyl)methyl-1-benzyl-5-carboxymethylaminocarbonyl-2,7-dioxo-9-methoxy-2,3,4,5,6,7-hexahydro-1H-1,4-benzodiazonine] | –
6310 nM | CC1CCN(C(=O)Nc2cc(C(=O)O)cc(C(=O)O)c2)CC(=O)N(Cc2ccccc2)c2ccccc21 (centres unmarked) [Example 47, 1-benzyl-7-methyl-4-(3,5-dicarboxyphenyl)carbamyl-2-oxo-2,3,4,5,6,7-hexahydro-1H-1,4-benzodiazonine] | –
1000 nM | CC(=O)N1[C@H](CC23CC4CC(CC(C4)C2)C3)C(=O)N(Cc2cccc(C)c2)c2ccccc2C(=O)C[C@H]1C(=O)NCC(=O)O [Example 71, (3R,5S)-4-acetyl-3-(1-adamantyl)methyl-1-(3-methylbenzyl)-5-carboxymethylaninocarbonyl-2,7-dioxo-2,3,4,5,6,7-hexahydro-1H-1,4-benzodiazonine] | –
398 nM | CC(=O)N1[C@H](CC23CC4CC(CC(C4)C2)C3)C(=O)N(Cc2cccc(Cl)c2)c2ccccc2C(=O)C[C@H]1C(=O)NCC(=O)O [Example 62, (3R,5S)-4-acetyl-3-(1-adamantyl)methyl-1-(3-chlorobenzyl)-5-carboxymethylaminocarbonyl-2,7-dioxo-2,3,4,5,6,7-hexahydro-1H-1,4-benzodiazonine] | –
6310 nM | Cc1cccc(NC(=O)N2CCCc3ccccc3N(CC(=O)OC(C)(C)C)C(=O)C2)c1 [Example 49, 1-tert-butyloxycarbonylmethyl-4-(3-methylphenyl)carbamyl-2-oxo-2,3,4,5,6,7-hexahydro-1H-1,4-benzodiazonine] | –
2510 nM | CC(=O)N1[C@@H](C(=O)NCC(=O)O)CC(=O)c2ccccc2N(Cc2ccccc2F)C(=O)[C@@H]1CC12CC3CC(CC(C3)C1)C2 [Example 73, (3S ,5R)-4-acetyl-3-(1-adamantyl)methyl-1-(2-fluorobenzyl)-5-carboxymethylaminocarbonyl-2,7-dioxo-2,3,4,5,6,7-hexahydro-1H-1,4-benzodiazonine] | –
158 nM | CC(=O)N1[C@H](CC23CC4CC(CC(C4)C2)C3)C(=O)N(Cc2ccccc2)c2ccccc2C(=O)C[C@H]1C(=O)NCc1nn[nH]n1 [Example 67, (3R,5S)-4-acetyl-3-(1-adamantyl)methyl-1-benzyl-5-tetrazolomethylaminocarbonyl-2,7-dioxo-2,3,4,5,6,7-hexahydro-1H-1,4-benzodiazonine] | –
398 nM | CC(=O)N1[C@H](CC23CC4CC(CC(C4)C2)C3)C(=O)N(Cc2ccccc2F)c2ccccc2C(=O)C[C@H]1C(=O)NCC(=O)NS(C)(=O)=O [Example 65, (3R,5S)-4-acetyl-3-(1-adamantyl)methyl-1-(2-fluorobenzyl)-5-methanesulphonamidocarboxymethylaminocarbonyl-2,7-dioxo-2,3,4,5,6,7-hexahydro-1H-1,4-benzodiazonine] | –

Source: US6057311A, “Benzodiazonine derivatives binding to cholecystokinin or gastrin receptors” (James Black Foundation Limited, priority 1996, dated 2000)
